Measured values reported in patent US10793568B2, “Hormone receptor modulators for treating metabolic conditions and disorders” (ARDELYX, INC., priority 2016, dated 2020).

Assays:
[1] = target: ligand binding domain of human FXR (Homo sapiens (Human), UniProt Q96RI1); assay: FXR ligand binding assay (LanthaScreen TR-FRET, SRC2-2 peptide recruitment); conditions: for pEC50: -log EC50, concentration required to produce 50% activation; for Emax: extent of activation relative to GW4064, read-out: % Efficacy
Chain of ligand binding domain of human FXR (Q96RI1 262-486): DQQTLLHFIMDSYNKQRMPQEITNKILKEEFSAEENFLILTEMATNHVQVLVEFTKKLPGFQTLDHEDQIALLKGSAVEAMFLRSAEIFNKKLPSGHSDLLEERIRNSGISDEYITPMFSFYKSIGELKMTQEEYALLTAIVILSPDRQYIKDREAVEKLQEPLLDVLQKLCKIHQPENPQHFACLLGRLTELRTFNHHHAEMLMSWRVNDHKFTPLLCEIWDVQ

[2] = target: human Farnesoid X receptor ligand-binding domain/Gal4 DNA binding domain chimera (Homo sapiens (Human), UniProt Q96RI1); assay: Cell-based assay of FXR activation (FXR-UAS-bla HEK 293T beta-lactamase reporter); conditions: cellular FXR beta-lactamase reporter assay; for Emax: HEK-293T, extent of activation relative to GW4064, read-out: % Efficacy; for EC50: FXR-UAS-bla HEK 293T cells, 16 h, pEC50 = -log EC50
Chain of human Farnesoid X receptor ligand-binding domain/Gal4 DNA binding domain chimera (Q96RI1 262-486, change not shown): as the sequence (Q96RI1 262-486) above
Chain of human Farnesoid X receptor ligand-binding domain/Gal4 DNA binding domain chimera (P04386 1-147 partner): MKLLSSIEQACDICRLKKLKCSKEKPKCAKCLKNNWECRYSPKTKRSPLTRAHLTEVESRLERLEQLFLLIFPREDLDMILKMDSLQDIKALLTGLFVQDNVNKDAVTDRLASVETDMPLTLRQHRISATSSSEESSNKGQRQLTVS
In short: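 HEK 293T cells stably expressing a Gal4-fused human FXR LBD and a UAS-driven beta-lactamase reporter were incubated with serially diluted compounds for 16 h at 37 °C in phenol red-free DMEM with 2% charcoal-stripped FBS. CCF4 FRET read-out: excitation 409 nm, emission 447 nm. pEC50 comes from a 3-parameter logistic fit, and efficacy is given as % of GW4064.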

DSS colitis mice = assay: Restoration of epithelial barrier integrity in DSS colitis; type: in vivo, C57Bl/6 mice; conditions: 30 mg/kg once daily oral gavage
Method: Colonic histopathology was assessed in mice administered dextran sodium sulfate (DSS) to assess the ability of selected example compounds to restore epithelial barrier integrity in a model of colitis presenting with epithelial erosions. Approximately seven-week old, female, C57Bl/6 mice were purchased from Envigo (Livermore, Calif.), were housed 6 per cage and acclimated for at least 2 weeks before study initiation. Animals were fed standard laboratory rodent chow Harlan Teklad Global 2018 (Maddison, Wis.). Mice had ad libitum access to food and water for the duration of the study and were maintained in a temperature and humidity controlled room on a standard light/dark cycle of 6 AM to 6 PM. DSS was prepared at 1.5% (MW 35-50 kDa, Lot # M7191, MP Biomedical) in filtered drinking water and provided to the mice from Day 0 to Day 7 (n=12/group). The DSS water was replaced once during the study on Day 3 or 4 with fresh DSS water. One cohort of mice (n=6) was provided drinking water without DSS and severed as the non-diseased control group. Vehicle (1% methylcellulose in water, 10 mL/kg) or varying doses of test compound were administered once daily by oral gavage beginning on Day −3 through Day 8. FXR agonist compounds of the invention, FXR1 and FXR2, were tested at doses of 0.3 and 1 mg/kg and compared to known FXR agonist obeticholic acid (OCA) administered at 30 mg/kg. Body weight and food and water intake were measured daily from the initiation of DSS administration. Disease activity index (DAI) scoring was performed on Day 9 prior to necropsy. Stool consistency, blood in stool, incidence of rectal prolapse, and body condition was assessed according to the scoring system in Table 25 and summed to a total DAI score:
Following DAI scoring on Day 9 and under isoflurane anesthesia mice were exsanguinated via cardiac puncture and euthanized by thoracotomy, followed by cervical dislocation. The entire colon (from the cecum to the anus) was removed, and the length recorded. The luminal contents were removed by flushing with ice-cold PBS using a blunt needle attached to a syringe and the colon was blotted dry and weighed. For each treatment group, half of the distal colon samples were prepared for cytokine analysis and half were prepared for histological evaluation. For cytokine measurement, the distal ⅓ of the colon was excised and weighed, placed into 5 mL Eppendorf tubes, frozen on dry ice and stored at −80° C., until analysis. Inflammatory cytokines were measured in colon tissue using a V-Plex custom kit (Proinflammatory Panel 1 (mouse), Mesoscale Technology). For histology, the colon was rolled by grasping the distal end and rotating to generate a spiral with a third dimension. The colon was then placed in a tissue cassette, and into a jar of 10/o buffered formalin phosphate at room temperature for at least 24 hours to ensure tissue fixation, at which point the formalin was replaced with 70% ethanol. […] Three levels of the distal colon were assigned a colitis score and the average colitis score for each animal was derived by summing the colitis scores for the three levels of colon evaluated and dividing the sum by three. The average colitis score for each treatment group was derived by summing the colitis scores for all levels of colon evaluated in the group and dividing the sum by the total number of levels of colon evaluated for that group. The presence or absence of mucosal defects (erosions or ulcerations) was also recorded for each level of colon. […]

SMILES | pEC50 [1] | Emax [1] [%] | Emax [2] [%] | EC50 [2] [nM] | DAI score (DSS colitis mice; Day 9, vs DSS vehicle) | body weight (DSS-induced reduction) (DSS colitis mice; vs DSS vehicle) | epithelial erosions (mucosal defects) observed histologically (DSS colitis mice; vs DSS vehicle) | histology colitis score (DSS colitis mice; vs DSS vehicle) | inflammatory cytokines IL-6, IL-1β, TNFα, IFNγ and KC/Gro in the colon (DSS colitis mice; vs DSS vehicle)
O=C(NS(=O)(=O)CC1CCOCC1)c1ccc(N2C(=O)[C@@H]3C[C@H]2C[C@H]3OCc2c(-c3c(Cl)cccc3Cl)noc2C2CC2)cc1 [Compound I-339, 4-((1S,4R,5R)-5-((5-cyclopropyl-3-(2,6-dichlorophenyl)isoxazol-4-yl)methoxy)-3-oxo-2-azabicyclo[2.2.1]heptan-2-yl)-N-(((tetrahydro-2H-pyran-4-yl)methyl)sulfonyl)benzamide] | 8.6 | 198 | 118 | 5.01 | – | – | – | – | –
O=C(NS(=O)(=O)C1CCOC1)c1ccc(N2C(=O)[C@@H]3C[C@H]2C[C@H]3OCc2c(-c3c(Cl)cccc3Cl)noc2C2CC2)cc1 (stereo partly drawn) [Compound I-340, 4-((1S,4R,5R)-5-((5-cyclopropyl-3-(2,6-dichlorophenyl)isoxazol-4-yl)methoxy)-3-oxo-2-azabicyclo[2.2.1]heptan-2-yl)-N-((tetrahydrofuran-3-yl)sulfonyl)benzamide] | 8.8 | 182 | 110 | 7.94 | – | – | – | – | –
O=C(NS(=O)(=O)CC1CCOC1)c1ccc(N2C(=O)[C@@H]3C[C@H]2C[C@H]3OCc2c(-c3c(Cl)cccc3Cl)noc2C2CC2)cc1 (stereo partly drawn) [Compound I-341, 4-((1S,4R,5R)-5-((5-cyclopropyl-3-(2,6-dichlorophenyl)isoxazol-4-yl)methoxy)-3-oxo-2-azabicyclo[2.2.1]heptan-2-yl)-N-(((tetrahydrofuran-3-yl)methyl)sulfonyl)benzamide] | 8.7 | 164 | 109 | 10 | – | – | – | – | –
O=C(NS(=O)(=O)CCC1CCOC1)c1ccc(N2C(=O)[C@@H]3C[C@H]2C[C@H]3OCc2c(-c3c(Cl)cccc3Cl)noc2C2CC2)cc1 (stereo partly drawn) [Compound I-342, 4-((1S,4R,5R)-5-((5-cyclopropyl-3-(2,6-dichlorophenyl)isoxazol-4-yl)methoxy)-3-oxo-2-azabicyclo[2.2.1]heptan-2-yl)-N-((2-(tetrahydrofuran-3-yl)ethyl)sulfonyl)benzamide] | 8.6 | 139 | 125 | 31.6 | – | – | – | – | –
O=C(NS(=O)(=O)C1CCCC1)c1ccc(N2C(=O)[C@@H]3C[C@H]2C[C@H]3OCc2c(-c3c(Cl)cccc3Cl)noc2C2CC2)cc1 [Compound I-343, N-(cyclopentylsulfonyl)-4-((1S,4R,5R)-5-((5-cyclopropyl-3-(2,6-dichlorophenyl)isoxazol-4-yl)methoxy)-3-oxo-2-azabicyclo[2.2.1]heptan-2-yl)benzamide] | 9 | 176 | 105 | 0.1 | – | – | – | – | –
O=C(NS(=O)(=O)[C@@H]1CCC[C@H]1O)c1ccc(N2C(=O)[C@@H]3C[C@H]2C[C@H]3OCc2c(-c3c(Cl)cccc3Cl)noc2C2CC2)cc1 [Compound I-344, 4-[(1S,4R,5R)-5-{[5-cyclopropyl-3-(2,6-dichlorophenyl)-1,2-oxazol-4-yl]methoxy}-3-oxo-2-azabicyclo[2.2.1]heptan-2-yl]-N-{[(1R,2R)-2-hydroxycyclopentyl]sulfonyl}benzamide] | 8.4 | 203 | 132 | 1.58 | – | – | – | – | –
NS(=O)(=O)[C@@H]1CCC[C@H]1OC(=O)c1ccc(N2C(=O)[C@@H]3C[C@H]2C[C@H]3OCc2c(-c3c(Cl)cccc3Cl)noc2C2CC2)cc1 [Compound I-345, (1R,2R)-2-sulfamoylcyclopentyl 4-[(1S,4R,5R)-5-{[5-cyclopropyl-3-(2,6-dichlorophenyl)-1,2-oxazol-4-yl]methoxy}-3-oxo-2-azabicyclo[2.2.1]heptan-2-yl]benzoate] | 8.6 | 203 | 121 | 3.98 | – | – | – | – | –
O=C(NS(=O)(=O)[C@@H]1CCC[C@H]1O)c1ccc(N2C(=O)[C@@H]3C[C@H]2C[C@H]3OCc2c(-c3c(Cl)cccc3Cl)noc2C2CC2)cc1F [Compound I-346, 4-[(1S,4R,5R)-5-{[5-cyclopropyl-3-(2,6-dichlorophenyl)-1,2-oxazol-4-yl]methoxy}-3-oxo-2-azabicyclo[2.2.1]heptan-2-yl]-2-fluoro-N-{[(1R,2R)-2-hydroxycyclopentyl]sulfonyl}benzamide] | 8.2 | 188 | 133 | 0.794 | – | – | – | – | –
NS(=O)(=O)[C@@H]1CCC[C@H]1OC(=O)c1ccc(N2C(=O)[C@@H]3C[C@H]2C[C@H]3OCc2c(-c3c(Cl)cccc3Cl)noc2C2CC2)cc1F [Compound I-347, (1R,2R)-2-sulfamoylcyclopentyl 4-[(1S,4R,5R)-5-{[5-cyclopropyl-3-(2,6-dichlorophenyl)-1,2-oxazol-4-yl]methoxy}-3-oxo-2-azabicyclo[2.2.1]heptan-2-yl]-2-fluorobenzoate] | 8.5 | 203 | 135 | 1 | – | – | – | – | –
O=C(O)CNC(=O)c1ccc(N2C(=O)[C@@H]3C[C@H]2C[C@H]3OCc2c(-c3c(Cl)cccc3Cl)noc2C2CC2)cc1 [Compound I-358, 2-({4-[(1S,4R,5R)-5-{[5-cyclopropyl-3-(2,6-dichlorophenyl)-1,2-oxazol-4-yl]methoxy}-3-oxo-2-azabicyclo[2.2.1]heptan-2-yl]phenyl}formamido)acetic Acid] | 8 | 155 | 124 | 631 | – | – | – | – | –
O=C(NCCS(=O)(=O)O)c1ccc(N2C(=O)[C@@H]3C[C@H]2C[C@H]3OCc2c(-c3c(Cl)cccc3Cl)noc2C2CC2)cc1 [Compound I-359, 2-({4-[(1S,4R,5R)-5-{[5-cyclopropyl-3-(2,6-dichlorophenyl)-1,2-oxazol-4-yl]methoxy}-3-oxo-2-azabicyclo[2.2.1]heptan-2-yl]phenyl}formamido)ethane-1-sulfonic Acid] | 8.4 | 148 | 126 | 398 | – | – | – | – | –
C[C@@H]1[C@@H]2C[C@@H](C[C@H]2OCc2c(-c3c(Cl)cccc3Cl)noc2C2CC2)N1c1ccc(C(=O)O)cc1 [Compound I-360, 4-[(1S,3R,4S,5R)-5-[[5-cyclopropyl-3-(2,6-dichlorophenyl)-1,2-oxazol-4-yl]methoxy]-3-methyl-2-azabicyclo[2.2.1]heptan-2-yl]benzoic acid] | 8.6 | 117 | 102 | 0.794 | – | – | – | – | –
CC[C@H]1[C@@H](O)[C@@H]2[C@H](CC[C@]3(C)[C@@H]([C@H](C)CCC(=O)O)CC[C@@H]23)[C@@]2(C)CC[C@@H](O)C[C@@H]12 [OCA, obeticholic acid] | – | – | – | – | did not significantly affect body weight nor DAI score | did not significantly affect body weight | did not reduce the number of epithelial erosions | did not significantly affect histology colitis score | only significantly reduced the levels of IL-1β, TNFα and KC/Gro
